Measurements: patent US20080090834A1, “SELECTIVE AZOLE PDE10A INHIBITOR COMPOUNDS” (Pfizer Inc, priority 2006, published 2008)
Structures can show the parent of a compound that is named as a salt.

target: T1, cloned rat PDE10A full-length enzyme (Rattus norvegicus, UniProt Q9QYJ6); test: PDE10 enzyme inhibition, [3H]cAMP scintillation proximity assay; format: biochemical; conditions: rat PDE10A from Sf9 cells, 20 nM [3H]cAMP, SPA beads, 20 minute incubation at room temperature
T1 construct: cloned rat PDE10A full-length enzyme grown in transfected Sf9 insect cells; made in house; host or cells: Sf9 insect cells
T1 sequence (Q9QYJ6 1-794): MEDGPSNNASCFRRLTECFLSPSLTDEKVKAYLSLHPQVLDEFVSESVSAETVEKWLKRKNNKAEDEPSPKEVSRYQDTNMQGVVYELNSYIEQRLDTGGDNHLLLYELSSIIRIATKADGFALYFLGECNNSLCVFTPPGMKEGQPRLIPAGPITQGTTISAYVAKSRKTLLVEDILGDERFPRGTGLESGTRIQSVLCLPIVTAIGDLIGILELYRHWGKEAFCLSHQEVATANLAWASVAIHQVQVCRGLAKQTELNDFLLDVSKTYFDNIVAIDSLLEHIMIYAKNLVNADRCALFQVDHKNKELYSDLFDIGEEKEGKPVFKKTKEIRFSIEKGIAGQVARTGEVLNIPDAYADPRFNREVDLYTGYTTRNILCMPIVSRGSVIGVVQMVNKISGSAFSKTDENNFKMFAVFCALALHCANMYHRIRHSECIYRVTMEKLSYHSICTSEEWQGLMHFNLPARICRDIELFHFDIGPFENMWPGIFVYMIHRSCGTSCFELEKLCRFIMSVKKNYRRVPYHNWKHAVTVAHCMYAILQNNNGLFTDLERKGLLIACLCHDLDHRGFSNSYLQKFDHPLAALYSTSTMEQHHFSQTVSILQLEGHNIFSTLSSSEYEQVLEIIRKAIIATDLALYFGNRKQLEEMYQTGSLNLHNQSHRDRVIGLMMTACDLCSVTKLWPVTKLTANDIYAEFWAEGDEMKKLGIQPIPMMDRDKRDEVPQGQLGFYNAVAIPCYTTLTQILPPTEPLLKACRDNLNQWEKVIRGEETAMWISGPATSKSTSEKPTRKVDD
Method: Compounds of the present invention were evaluated for ability to inhibit PDE10 enzyme with the following Assay procedure
The enzyme used in the procedure was cloned rat PDE10A full-length enzyme grown in transfected Sf9 insect cells. Cloned enzyme was extracted from homogenized cell pellets and stored frozen in homogenizing buffer until use. Compounds were initially dissolved in 100% DMSO and diluted out in 20 percent DMSO/water solution. Final concentration of DMSO in the assay was 2 percent as compounds were tested in triplicate in 96 well plates. Compound solution was placed in well, then tritiated cyclic AMP (New England Nuclear NET275) in assay buffer was added at 20 nM concentration. Then PDE10 enzyme in assay buffer of 50 mM Tris, 8.3 mM MgCl2, pH 7.5 at room temperature was added for a final assay volume of 100 ul. Concentration of enzyme was added such that less than 10 percent of [3H]cAMP at 20 nM was converted to detectable end product, [3H]AMP bound to SPA (Scintillation Proximity Assay) beads. Phosphodiesterase scintillation proximity yttrium silicate beads from Amersham Biosciences (RPNQ0150) were added (50 ul at 20 mg/ml) after a 20 minute incubation at room temperature. Zinc sulphate as a component of the beads stops the phosphodiesterase reaction.
Non-specific binding to SPA beads was determined by addition of 1 uM papaverine. Total conversion by enzyme without inhibitor of [3H]cAMP to [3H]AMP, as detected by scintillation of [3H]AMP bound to yttrium silicate beads, was determined in the presence of vehicle-only.

Row | Compound | IC50
1 | COc1nc2cccnc2n1-c1ccc(-c2nc(-c3ccccn3)cn2-c2ccc(C)nc2)cc1 [Example 60, 2-methoxy-3-(4-(1-(6-methylpyridin-3-yl)-4-(pyridin-2-yl)-1H-imidazol-2-yl)phenyl)-3H-imidazo[4,5-b]pyridine] | 0.000388 µM
2 | CN(C)c1ccc(-n2cc(-c3nccs3)nc2-c2ccc(-n3ccc4cccnc43)cc2)cn1 [Example 30, 5-(2-(4-(1H-pyrrolo[2,3-b]pyridin-1-yl)phenyl)-4-(thiazol-2-yl)-1H-imidazol-1-yl)-N,N′-dimethylpyridin-2-mine] | 0.000607 µM
3 | c1ccc(-c2cn(-c3cccnc3)c(-c3ccc(-n4cnc5ncccc54)cc3)n2)nc1 (single isomer, unassigned) [Example 46, 1-(4-(4-(pyridin-2-yl)-1-(pyridin-3-yl)-1H-imidazol-2-yl)phenyl)-1H-imidazo[4,5-b]pyridine bis-trifluororoacetic acid salt] | 0.231 µM
4 | Fc1c(F)c(F)c2c(ccn2-c2ccc(-c3nc(-c4ccccn4)cn3-c3cccnc3)cc2)c1F [Example 38, 4,5,6,7-tetratfluoro-1-(4-(4-(pyridin-2-yl)-1-(pyridin-3-yl)-1H-imidazol-2-yl)phenyl)-1H-indole] | 0.17 µM
5 | 3-(4-(5-(4-methoxyphenyl)-2-(thiophen-2-yl)-1H-imidazol-4-yl)phenyl)-3H-imidazol[4,5-b]pyridine and 1-(4-(5-(4-methoxyphenyl)-2-(thiophen-2-yl)-1H-imidazo[4,5-b]pyridine [Example 101] | 0.000708 µM
6 | Cc1ccc(-n2cc(-c3ccccn3)nc2-c2ccc(-n3ccc4cccnc43)cc2)cn1 [Example 6, 1-(4-(1-(6-methylpyridine-3-yl)-4-(pyridin-2-yl)-1H-imidazol-2-yl)phenyl)-1H-pyrrolo[2,3-b]pyridine] | 0.00321 µM
7 | Cc1ccc(-n2cc(-c3ccccn3)nc2-c2ccc(-n3ccc4cccnc43)cc2C)cn1 [Example 13, 1-(3-methyl-4-(1-(6-methylpyridin-3-yl)-4-(pyridin-2-yl)-1H-imidazol-2-yl)phenyl)-1H-pyrrolo[2,3-b]pyridin] | 0.0371 µM
8 | c1ccc(-c2cn(-c3cccnc3)c(-c3ccc(-n4c5ccccc5c5cccnc54)cc3)n2)nc1 [Example 19, 9-(4-(4-(pyridin-2-yl)-1-(pyridin-3-yl)-1H-imidazol-2-yl)phenyl)-9H-pyrido[2,3-b]indole] | 0.000992 µM
9 | Cc1ncccc1-n1cc(-c2nccs2)nc1-c1ccc(-n2ccc3cccnc32)cc1 [Example 28, 1-(4-(1-(2-methylpyridin-3-yl)-4-(thiazol-2-yl)-1H-imidazol-2-yl)phenyl]-1H-pyrrolo[2,3-b]pyridine] | 0.0441 µM
10 | Cc1ccc(-n2cc(-c3ccccn3)nc2-c2ccc(-n3ccc4nccnc43)cc2)cn1 [Example 50, 5-(4-(1-(6-methylpyridin-3-yl)-4-(pyridin-2-yl)-1H-imidazol-2-yl)phenyl)-5H-pyrrolo[3,2-b]pyrazine] | < 0.00347 µM
11 | c1cnc2c(c1)ccn2-c1ccc(-c2nc(-c3nccs3)cn2-c2ccc(N3CCOCC3)nc2)cc1 [Example 34, 1-(4-(1-(6-morpholinopyridin-3-yl)-4-(thiazol-2-yl)-1H-imidazol-2-yl)phenyl)-1H-pyrrolo[2,3-b]pyridine] | 0.000436 µM
12 | Cc1ccc(-n2cc(-c3ncc(C)s3)nc2-c2ccc(-n3ccc4cccnc43)cc2)cn1 [Example 61, 1-(4-(1-(6-methylpyridin-3-yl)-4(5-methylthiazol-2-yl)-1H-imidazol-2-yl)phenyl)-1H-pyrrolo[2,3-b]pyridine] | 0.0548 µM
13 | Clc1cccc2c1ccn2-c1ccc(-c2nc(-c3ccccn3)cn2-c2cccnc2)cc1 [Example 39, 4-chloro-1-(4-(4-(pyridin-2-yl)-1-(pyridin-3-yl)-1H-imidazol-2-y TFA salt] | 0.113 µM
14 | Cc1ccc(-n2cc(-c3cccc[n+]3[O-])nc2-c2ccc(-n3ccc4cccnc43)cc2)cn1 [Example 16, 1-(4-(1-(6-methylpyridin-3-yl)-4-(1-oxido-pyridin-2-yl)-1H-imidazol-2-yl)phenyl)-1H-pyrrolo[2,3-b]pyridine] | 0.0123 µM
15 | Cc1cn(-c2ccc(-c3nc(-c4ccccn4)cn3-c3cccnc3)cc2)cn1 [Example 41, 3-(2-(4-(4-methyl-1H-imidazol-1-yl)phenyl)-4-(pyridin-2-yl)-1H-imidazol-1-yl)pyridine] | 0.293 µM
16 | c1ccc(-c2cn(-c3cccnc3)c(-c3ccc(-n4nnc5cccnc54)cc3)n2)nc1 [Example 51, 3(4-(4-(pyridin-2-yl)-1-(pyridin-3-yl)-1H-imidazol-2-yl)phenyl)-3H-[1,2,3]triazole[4,5-b]pyridine bis-TFA salt] | 0.0115 µM
17 | Cc1ccc(-n2cc(-c3ccccn3)nc2-c2ccc(-n3c(C(F)(F)F)nc4cccnc43)cc2)cn1 [Example 58, 2(trifluoromethyl)-3(4-(1-(6-methylpyridin-3-yl)-4-(pyridin-2-yl)-1H-imidazol-2-yl)phenyl)-3H-imidazo[4,5-b]pyridine] | 0.00106 µM
18 | c1ccc(-c2cn(-c3cccnc3)c(-c3ccc(-n4ccc5ccccc54)cc3)n2)nc1 [Example 36, 1-(4-(4-(pyridin-2-yl)-1-(pyridin-3-yl)-1H-imidazol-2-yl)phenyl)-1H-indole] | 0.281 µM

Second part, the compound after the results:

Row | IC50 | Compound
19 | 0.16 µM | c1ccc(-c2cn(-c3cncnc3)c(-c3ccc(-c4cccnc4)cc3)n2)nc1 [Example 72]
20 | 0.00113 µM | Cc1ccc(-n2cc(-c3cscn3)nc2-c2ccc(-n3c(C(C)C)nc4cccnc43)cc2)cn1 [Example 98, 2-isopropyl-3-(4-(1-(6-methylpyridin-3-yl)-4-(thiazol-4-yl)-1H-imidazol-2-yl)phenyl)-3H-imidazo[4,5-b]pyridine]
21 | 0.000794 µM | COc1cc(-c2ccc(-c3nc(-c4ccccn4)cn3-c3cccnc3)cc2)c2ncccc2c1 [Example 80, 6-methoxy-8-(4-(4-(pyridin-2-yl)-1-(pyridin-3-yl)-1H-imidazol-2-yl)phenyl)quinoline]
22 | 0.000287 µM | COc1nc2cccnc2n1-c1ccc(-c2nc(-c3nc(C)cs3)cn2-c2ccc(C)nc2)cc1 [Example 90, 2-methoxy-3-(4-(1-(6-methylpyridin-3-yl)-4-(4-methylthiazol-2-yl)-1H-imidazol-2-yl)phenyl)-3H-imidazol[4,5-b]pyridine]
23 | 0.0262 µM | c1ccc(-c2nc(-c3ccc(-n4ccc5cccnc54)cc3)n(-c3cccnc3)n2)nc1 [Preparation 123, 1-(4-(5-(pyridin-2-yl)-2-(pyridin-3-yl)-2H-1,2,4-triazol-3-yl)phenyl)-1H-pyrrolo[2,3-b]pyridine]
24 | 0.00929 µM | c1ccc(-c2cc(-c3cccnc3)n(-c3ccc(-n4ccc5cccnc54)cc3)n2)nc1 [Example 121, 1-(4-(3-(pyridin-2-yl)-5-(pyridin-3-yl)-1H-pyrazol-1-yl)phenyl)-1H-pyrrolo)-2,3-b]pyridine bis-TFA salt]
25 | 0.00391 µM | Cc1ccc(-n2cc(-c3ccccn3)nc2-c2ccc(-n3c(=O)[nH]c4cccnc43)cc2)cn1 [Example 95]
26 | 0.00659 µM | Cc1ccc(-n2cc(-c3ccc(F)s3)nc2-c2ccc(-n3ccc4cccnc43)cc2)cn1 [Example 64, 1-(4-(4-(5-fluorothiophen-2-yl)-1-(6-methylpyridin-3-yl)-1H-imidazol-2-yl)phenyl)-1H-pyrrolo[2,3-b]pyridine]
27 | 0.0474 µM | Cc1cc(-c2nc(-c3cccs3)[nH]c2-c2cnccn2)ccc1-n1ccc2cccnc21 [Example 113]
28 | 0.602 µM | COc1ccc(-c2[nH]c(-c3cccs3)nc2-c2ccc(-n3cnc(-c4ccccc4)c3)cc2)cc1 [Example 108]
29 | < 1 µM | Cc1ccc(-n2cc(-c3nccs3)nc2-c2ccc(-n3c(C(F)(F)F)nc4cccnc43)cc2)cn1 [Example 87]
30 | 0.00196 µM | Cc1ccc(-n2cc(-c3cncs3)nc2-c2ccc(-n3c(C(C)C)nc4cccnc43)cc2)cn1 [Example 97]
31 | 0.216 µM | Clc1ccc(-c2ccc(-c3nc(-c4ccccn4)cn3-c3cncnc3)cc2)cc1Cl [Example 70, 5-(2-(4-(3,4-dichloropheny)phenyl)-4-(pyridin-2-yl)-1H-imidazol-1-yl)pyrimidine]
